Assay results published in US20210045385A1, “PYRIDAZINONE-SUBSTITUTED KETOXIMES AS HERBICIDES” (FMC Corporation, priority 2018, published 2021).

Legend:
Format in all cases: in vivo
[1] = system: blackgrass (Alopecurus myosuroides); assay: Test C postemergence, visual plant response rating
Summary of the method: (§1)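 Seeds sown in a loam–sand blend got a directed preemergence soil spray; postemergence plants (2–10 cm, one- to two-leaf stage) were sprayed with compound in a non-phytotoxic solvent plus surfactant. Injury was scored visually against untreated controls after about 10 d in a greenhouse on a 0–100 scale (100 = complete control).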

[2] = system: galium (catchweed bedstraw, Galium aparine); assay: Test C postemergence, visual plant response rating
Summary of the method: as §1

kochia (Bassia scoparia) [3] = assay: Test C postemergence, visual plant response rating
Summary of the method: as §1

corn (Zea mays) = assay: Test C postemergence, visual plant response rating
Summary of the method: as §1

[4] = system: ragweed (common ragweed, Ambrosia artemisiifolia); assay: Test C postemergence, visual plant response rating
Summary of the method: as §1

[5] = system: pigweed (Amaranthus retroflexus); assay: Test C postemergence, visual plant response rating
Summary of the method: as §1

[6] = system: wheat (Triticum aestivum); assay: Test C postemergence, visual plant response rating
Summary of the method: as §1

[7] = system: foxtail, giant (giant foxtail, Setaria faberi); assay: Test C postemergence, visual plant response rating
Summary of the method: as §1

[8] = system: Italian ryegrass (Lolium mutiflorum); assay: Test C postemergence, visual plant response rating
Summary of the method: as §1

[9] = system: barnyardgrass (Echinochloa crus-galli); assay: Test C postemergence, visual plant response rating
Summary of the method: as §1

kochia (Bassia scoparia) [10] = assay: Test C preemergence, visual plant response rating; conditions: Test C, 0 is no effect, 100 is complete control
Summary of the method: as §1

[11] = system: ragweed (common ragweed, Ambrosia artemisiifolia); assay: Test C preemergence, visual plant response rating; conditions: Test C, 0 is no effect, 100 is complete control
Summary of the method: as §1

[12] = system: pigweed (Amaranthus retroflexus); assay: Test C preemergence, visual plant response rating; conditions: Test C, 0 is no effect, 100 is complete control
Summary of the method: as §1

[13] = system: foxtail, giant (giant foxtail, Setaria faberi); assay: Test C preemergence, visual plant response rating; conditions: Test C, 0 is no effect, 100 is complete control
Summary of the method: as §1

[14] = system: Italian ryegrass (Lolium mutiflorum); assay: Test C preemergence, visual plant response rating; conditions: Test C, 0 is no effect, 100 is complete control
Summary of the method: as §1

[15] = system: barnyardgrass (Echinochloa crus-galli); assay: Test C preemergence, visual plant response rating; conditions: Test C, 0 is no effect, 100 is complete control
Summary of the method: as §1

[16] = system: duck salad (Heteranthera limosa); assay: Test D flooded paddy test, visual plant response rating; conditions: 250 g ai/ha, scale 0 to 100 (0 no effect, 100 complete control), 13 to 15 d
Summary of the method: (§2)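 Greenhouse paddy assay scored on a 0–100 visual scale after 13 to 15 d, where 100 means complete control and a dash marks no result; dosing was into 3 cm floodwater over 2-leaf plants.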

[17] = system: sedge umbrella (small-flower umbrella sedge, Cyperus difformis); assay: as above; conditions: 250 g ai/ha, scale 0 to 100 (0 no effect, 100 complete control), 13 to 15 d
Summary of the method: as §2

rice (Oryza sativa) = assay: as above; conditions: 250 g ai/ha, scale 0 to 100 (0 no effect, 100 complete control), 13 to 15 d
Summary of the method: as §2

[18] = system: barnyardgrass (Echinochloa crus-galli); assay: as above; conditions: 250 g ai/ha, scale 0 to 100 (0 no effect, 100 complete control), 13 to 15 d
Summary of the method: as §2

[19] = Test C, postemergence, 125 g ai/ha

Row | Structure (SMILES) | Blackgrass plant response rating (0 to 100 scale) ([1]; Postemergence, 31 g ai/ha) | Blackgrass plant response rating (0 to 100 scale) [1, 19] | Galium plant response rating (0 to 100 scale) ([2]; Postemergence, 31 g ai/ha) | Galium plant response rating (0 to 100 scale) [2, 19] | Kochia plant response rating (0 to 100 scale) (kochia (Bassia scoparia) [3]; Postemergence, 31 g ai/ha) | Kochia plant response rating (0 to 100 scale) (kochia (Bassia scoparia) [3]; [19]) | Corn plant response rating (0 to 100 scale) (corn (Zea mays); Postemergence, 31 g ai/ha) | Corn plant response rating (0 to 100 scale) (corn (Zea mays); [19]) | Ragweed plant response rating (0 to 100 scale) ([4]; Postemergence, 31 g ai/ha) | Ragweed plant response rating (0 to 100 scale) [4, 19] | Pigweed plant response rating (0 to 100 scale) ([5]; Postemergence, 31 g ai/ha) | Pigweed plant response rating (0 to 100 scale) [5, 19] | Wheat plant response rating (0 to 100 scale) ([6]; Postemergence, 31 g ai/ha) | Wheat plant response rating (0 to 100 scale) [6, 19] | Foxtail, Giant plant response rating (0 to 100 scale) ([7]; Postemergence, 31 g ai/ha) | Foxtail, Giant plant response rating (0 to 100 scale) [7, 19] | Ryegrass, Italian plant response rating (0 to 100 scale) ([8]; Postemergence, 31 g ai/ha) | Ryegrass, Italian plant response rating (0 to 100 scale) [8, 19] | Barnyardgrass plant response rating (0 to 100 scale) ([9]; Postemergence, 31 g ai/ha) | Barnyardgrass plant response rating (0 to 100 scale) [9, 19] | also measured
1 | CO/N=C(\c1cc(Cl)c(F)c(Cl)c1)c1c(O)c(C)nn(C)c1=O [Compound 290] | 0 | 0 | 70 | 100 | 0 | 20 | 0 | 0 | 20 | 50 | 0 | 0 | 0 | 0 | 0 | 0 | 0 | 60 | 0 | 20 | Kochia plant response rating (0 to 100 scale) (kochia (Bassia scoparia) [10]; 31 g ai/ha): 0; Kochia plant response rating (0 to 100 scale) (kochia (Bassia scoparia) [10]; 125 g ai/ha): 0; Ragweed plant response rating (0 to 100 scale) ([11]; 31 g ai/ha): 20; Ragweed plant response rating (0 to 100 scale) ([11]; 125 g ai/ha): 90; Pigweed plant response rating (0 to 100 scale) ([12]; 31 g ai/ha): 10; Pigweed plant response rating (0 to 100 scale) ([12]; 125 g ai/ha): 30; Foxtail, Giant plant response rating (0 to 100 scale) ([13]; 31 g ai/ha): 0; Foxtail, Giant plant response rating (0 to 100 scale) ([13]; 125 g ai/ha): 20; Ryegrass, Italian plant response rating (0 to 100 scale) ([14]; 31 g ai/ha): 0; Ryegrass, Italian plant response rating (0 to 100 scale) ([14]; 125 g ai/ha): 40; Barnyardgrass plant response rating (0 to 100 scale) ([15]; 31 g ai/ha): 0; Barnyardgrass plant response rating (0 to 100 scale) ([15]; 125 g ai/ha): 0; Plant response rating, Ducksalad (Flood) [16]: 0; Plant response rating, Sedge, Umbrella (Flood) [17]: 0; Plant response rating, Rice (Flood) (rice (Oryza sativa)): 0; Plant response rating, Barnyardgrass (Flood) [18]: 0
2 | C#CCO/N=C(/c1cc(Cl)cc(Br)c1)c1c(O)c(C)nn(C)c1=O [Compound 291] | 0 | 70 | 100 | 100 | 50 | 100 | 20 | 30 | 100 | 100 | 30 | 60 | 30 | 90 | 40 | 80 | 90 | 100 | 20 | 70 | Kochia plant response rating (0 to 100 scale) (kochia (Bassia scoparia) [10]; 31 g ai/ha): 0; Kochia plant response rating (0 to 100 scale) (kochia (Bassia scoparia) [10]; 125 g ai/ha): 90; Ragweed plant response rating (0 to 100 scale) ([11]; 31 g ai/ha): 60; Ragweed plant response rating (0 to 100 scale) ([11]; 125 g ai/ha): 100; Pigweed plant response rating (0 to 100 scale) ([12]; 31 g ai/ha): 10; Pigweed plant response rating (0 to 100 scale) ([12]; 125 g ai/ha): 80; Foxtail, Giant plant response rating (0 to 100 scale) ([13]; 31 g ai/ha): 50; Foxtail, Giant plant response rating (0 to 100 scale) ([13]; 125 g ai/ha): 100; Ryegrass, Italian plant response rating (0 to 100 scale) ([14]; 31 g ai/ha): 10; Ryegrass, Italian plant response rating (0 to 100 scale) ([14]; 125 g ai/ha): 100; Barnyardgrass plant response rating (0 to 100 scale) ([15]; 31 g ai/ha): 0; Barnyardgrass plant response rating (0 to 100 scale) ([15]; 125 g ai/ha): 100; Plant response rating, Ducksalad (Flood) [16]: 25; Plant response rating, Sedge, Umbrella (Flood) [17]: 45; Plant response rating, Rice (Flood) (rice (Oryza sativa)): 0; Plant response rating, Barnyardgrass (Flood) [18]: 0
